# Patent US10617680B2 (CELGENE QUANTICEL RESEARCH, INC., priority 2017, dated 2020)
# Molecular target: CBP (Homo sapiens (Human), UniProt Q92793)
# Test: In vitro CBP inhibition (AlphaScreen, biotinylated H4-tetraacetyl peptide)
# Format: binding
# Details: AlphaScreen, Table 29; read-out: CBP IC50
# Procedure: The CBP-inhibitory activity of the compounds described herein was determined by calculating the IC50. More specifically, CBP inhibitor activity was assayed as follows: CBP was cloned and expressed in E. coli as His-tag protein and purified by Nickel affinity and gel-filtration chromatography. […] CBP binding and inhibition is assessed by monitoring the interaction of biotinylated H4-tetraacetyl peptide (AnaSpec, H4K5/8/12/16(Ac), biotin-labeled) with the target using the AlphaScreen technology (Perkin Elmer). In a 384-well ProxiPlate CBP (50 nM final) was combined with peptide (20 nM final) in 50 mM HEPES (pH 7.3), 10 mM NaCl, 0.25 mM TCEP, 0.1% (w/v) BSA, and 0.005% (w/v) Brij-35 either in the presence of DMSO (final 0.4% DMSO) or compound dilution series in DMSO. After 20 min incubation at room temp, Alpha-streptavidin donor beads and Nickel Chelate acceptor beads were added to a final concentration of 5 μg/mL.
# The ability of the compounds disclosed herein to inhibit CBP activity was quantified and the respective IC50 value determined.
# Sequence of CBP (Q92793 1081-1197): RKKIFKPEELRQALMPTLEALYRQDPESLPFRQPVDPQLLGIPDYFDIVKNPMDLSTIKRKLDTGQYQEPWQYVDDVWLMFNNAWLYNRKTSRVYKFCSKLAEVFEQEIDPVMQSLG
row,SMILES,IC50 [nM]
1,"Cn1cc(-c2cnn(-c3cccc(F)c3C#N)c2)c(-c2ccc(NC3CCCC3)nc2)cc1=O [Example 343, 2-(4-(6-(cyclopentylamino)-1′-methyl-6′-oxo-1′,6′-dihydro-[3,4′-bipyridin]-3′-yl)-1H-pyrazol-1-yl)-6-fluorobenzonitrile]",< 500
2,"Cn1cc(-c2cnn(-c3ccccc3C(=O)NC#N)c2)c(-c2ccc(F)cc2)cc1=O [Example 288, N-cyano-2-(4-(4-(4-fluorophenyl)-1-methyl-6-oxo-1,6-dihydropyridin-3-yl)-1H-pyrazol-1-yl)benzamide]",< 500
3,"CCOc1cc(=O)n(C)cc1-c1cnn(-c2ccccc2C(N)=O)c1 [Example 282, 2-(4-(4-ethoxy-1-methyl-6-oxo-1,6-dihydropyridin-3-yl)-1H-pyrazol-1-yl)benzamide]",< 500
4,"CC(c1ccccc1)n1cc(-c2cn(C)c(=O)cc2N2CCC2)cn1 (stereo not shown) [Example 40, 4-(azetidin-1-yl)-1-methyl-5-(1-(1-phenylethyl)-1H-pyrazol-4-yl) pyridin-2(1H)-one]",< 500
5,"CC(C)COc1cc(=O)n(C)cc1-c1cnn(C(C)c2ccccc2)c1 (stereo not shown) [Example 48, 4-isobutoxy-1-methyl-5-(1-(1-phenylethyl)-1H-pyrazol-4-yl) pyridin-2(1H)-one]",< 500
6,"Cn1cc(-c2cnn(Cc3ccccc3)c2)c(-c2ccn[nH]2)cc1=O [Example 114, 5-(1-benzyl-1H-pyrazol-4-yl)-1-methyl-4-(1H-pyrazol-5-yl) pyridin-2(1H)-one]",< 500
7,"Cc1ccccc1C(C)n1cc(-c2ccc(=O)n(C)c2)cn1 (stereo not shown) [Example 22, 1-methyl-5-(1-(1-(o-tolyl)ethyl)-1H-pyrazol-4-yl)pyridin-2(1H)-one]",< 500
8,"Cn1cc(-c2cnn3c2CCC3)c(-c2ccccc2)cc1=O [Example 162, 5-(5,6-dihydro-4H-pyrrolo[1,2-b]pyrazol-3-yl)-1-methyl-4-phenylpyridin-2(1H)-one]",< 500
9,"CC(c1ccccc1)n1cc(-c2cn(C)c(=O)cc2OCc2ccn(C)n2)cn1 (stereo not shown) [Example 44, 1-methyl-4-((1-methyl-1H-pyrazol-3-yl)methoxy)-5-(1-(1-phenyl-ethyl)-1H-pyrazol-4-yl) pyridin-2(1H)-one]",< 500
10,"Cn1cc(-c2cn(C)c(=O)cc2C2CCCCC2)cn1 [Example 143, 4-cyclohexyl-1-methyl-5-(1-methyl-1H-pyrazol-4-yl)pyridin-2 (1H)-one]",500 to 5000
11,"COc1ccc(-c2cc(=O)n(C)cc2-c2cnn(Cc3ccccc3)c2)cc1 [Example 120, 5-(1-benzyl-1H-pyrazol-4-yl)-4-(4-methoxyphenyl)-1-methyl-pyridin-2(1H)-one]",< 500
12,"Cn1cc(-c2cnn(Cc3ccccc3)c2)c(-n2cccc2)cc1=O [Example 68, 5-(1-benzyl-1H-pyrazol-4-yl)-1-methyl-4-(1H-pyrrol-1-yl) pyridi-2(1H)-one]",< 500
13,"Cn1cc(-c2cnn(Cc3ccccc3)c2)c(-c2ccc(F)cc2)cc1=O [Example 149, 5-(1-benzyl-1H-pyrazol-4-yl)-4-(4-fluorophenyl)-1-methyl-pyridin-2(1H)-one]",< 500
14,"CCOc1ccc(-c2cc(=O)n(C)cc2-c2cnn(-c3cc(OC)ccc3C(=O)O)c2)cn1 [Example 271, 2-[4-(6-Ethoxy-1′-methyl-6′-oxo-1′,6′-dihydro-[3,4′]bipyridinyl-3′-yl)-pyrazol-1-yl]-4-methoxy-benzoic acid]",< 500
15,"Cc1ccc(-c2cc(=O)n(C)cc2-c2cnn(Cc3ccccc3)c2)cc1 [Example 112, 5-(1-benzyl-1H-pyrazol-4-yl)-1-methyl-4-(p-tolyl)pyridin-2(1H)-one]",< 500
16,"Cn1cc(-c2cnn(Cc3ccccc3)c2)c(-c2ccncc2)cc1=O [Example 124, 5-(1-benzyl-1H-pyrazol-4-yl)-1-methyl-[4,4′-bipyridin]-2(1H)-one]",< 500
17,"COc1ccc(-c2cc(=O)n(C)cc2-c2cnn(-c3ccccc3S(C)(=O)=O)c2)cn1 [Example 285, 5′-[1-(2-Methanesulfonyl-phenyl)-1H-pyrazol-4-yl]-6-methoxy-1′-methyl-1′H-[3,4′]bipyridinyl-2′-one]",< 500
18,"CC(C)COc1ccc(-c2cc(=O)n(C)cc2-c2cnn(-c3ccccc3C(=O)O)c2)cn1 [Example 232, 2-[4-(6-Isobutoxy-1′-methyl-6′-oxo-1′,6′-dihydro-[3,4′]bipyridinyl-3′-yl)-pyrazol-1-yl]-benzoic acid]",< 500
19,"Cn1cc(-c2cnn(Cc3ccccc3)c2)c(-c2ccc(=O)[nH]c2)cc1=O [Example 194, 5′-(1-Benzyl-1H-pyrazol-4-yl)-1′-methyl-1H,1′H-[3,4′]bipyridinyl-6,2′-dione]",< 500
20,"Cn1cc(-c2cnn(Cc3cccc(C#N)c3)c2)ccc1=O [Example 4, 3-((4-(1-methyl-6-oxo-1,6-dihydropyridin-3-yl)-1H-pyrazol-1-yl)methyl)benzonitrile]",500 to 5000
21,"C[C@H](c1ccccc1)n1cc(-c2cn(C)c(=O)cc2-n2cccn2)cn1 [Example 61, (R)-1-methyl-5-(1-(1-phenylethyl)-1H-pyrazol-4-yl)-4-(1H-pyrazol-1-yl)pyridin-2(1H)-one]",< 500
22,"CCOc1cc(=O)n(C)cc1-c1cnn(C2CCCN(S(C)(=O)=O)C2)c1 (stereo not shown) [Example 181, 4-ethoxy-1-methyl-5-(1-(1-(methylsulfonyl)piperidin-3-yl)-1H-pyrazol-4-yl)pyridin-2(1H)-one]",< 500
23,"CC(c1ccccc1Cl)n1cc(-c2ccc(=O)n(C)c2)cn1 (stereo not shown) [Example 19, 5-(1-(1-(2-chlorophenyl)ethyl)-1H-pyrazol-4-yl)-1-methyl-pyridin-2(1H)-one]",< 500
24,CNC(=O)c1ccn(-c2cc(=O)n(C)cc2-c2cnn(Cc3ccccc3)c2)c1 [Example 76],< 500

# Continued, values first:
row,IC50 [nM],SMILES
1,< 500,"Cn1cc(-c2cnn(-c3ccccc3C#N)c2)c(-c2cc[nH]c(=O)c2)cc1=O [Example 205, 2-[4-(1-Methyl-6,2′-dioxo-1,6,1′,2′-tetrahydro-[4,4′]bipyridinyl-3-yl)-pyrazol-1-yl]-benzonitrile]"
2,< 500,"Cn1cc(-c2cnn(-c3cccc(Cl)c3C#N)c2)c(-c2cnc(N3CCCCC3)nc2)cc1=O [Example 338, 2-chloro-6-(4-(1-methyl-6-oxo-4-(2-(piperidin-1-yl)pyrimidin-5-yl)-1,6-dihydropyridin-3-yl)-1H-pyrazol-1-yl)benzonitrile]"
3,< 500,"COc1ccc(C#N)c(-n2cc(-c3cn(C)c(=O)cc3-c3ccnc(OC)c3)cn2)c1 [Example 266, 4-Methoxy-2-[4-(2′-methoxy-1-methyl-6-oxo-1,6-dihydro-[4,4′]bipyridinyl-3-yl)-pyrazol-1-yl]-benzonitrile]"
4,< 500,"Cn1ccc(-c2cc(=O)n(C)cc2-c2cnn(-c3cccc(Cl)c3C#N)c2)cc1=O [Example 276, 2-Chloro-6-[4-(1,1′-dimethyl-6,2′-dioxo-1,6,1,′,2′-tetrahydro-[4,4′]bipyridinyl-3-yl)-pyrazol-1-yl]-benzonitrile]"
5,< 500,"COc1ccc(C#N)cc1-n1cc(-c2cn(C)c(=O)cc2-c2ccn(C)c(=O)c2)cn1 [Example 305, 3-(4-(1,1′-dimethyl-2′,6-dioxo-1,1′,2′,6-tetrahydro-[4,4′-bipyridin]-3-yl)-1H-pyrazol-1-yl)-4-methoxybenzonitrile]"
6,< 500,"CCNc1ccc(-c2cc(=O)n(C)cc2-c2cnn(-c3cccc(F)c3C#N)c2)cn1 [Example 344, 2-(4-(6-(ethylamino)-1′-methyl-6′-oxo-1′,6′-dihydro-[3,4′-bipyridin]-3′-yl)-1H-pyrazol-1-yl)-6-fluorobenzonitrile]"
7,< 500,"COc1ccc(C#N)c(-n2cc(-c3cn(C)c(=O)cc3-c3ccc(OC)nc3)cn2)c1 [Example 264, 4-Methoxy-2-[4-(6-methoxy-1′-methyl-6′-oxo-1′,6′-dihydro-[3,4′]bipyridinyl-3′-yl)-pyrazol-1-yl]-benzonitrile]"
8,< 500,"Cn1cc(-c2cnn(-c3cccc(F)c3C#N)c2)c(-c2cnc(N3CCCC3)nc2)cc1=O [Example 336, 2-fluoro-6-[4-[1-methyl-6-oxo-4-(2-pyrrolidin-1-ylpyrimidin-5-yl)-3-pyridyl]pyrazol-1-yl]benzonitrile]"
9,< 500,"CCCn1ccc(-c2cc(=O)n(C)cc2-c2cnn(-c3cccc(C4CC4)c3C#N)c2)cc1=O [Example 385, 2-cyclopropyl-6-[4-[1-methyl-6-oxo-4-(2-oxo-1-propyl-4-pyridyl)-3-pyridyl]pyrazol-1-yl]benzonitrile]"
10,< 500,"Cn1cc(-c2cnn(-c3cccc(F)c3C#N)c2)c(-c2ccc(C3CC3)nc2)cc1=O [Example 374, 2-[4-[4-(6-cyclopropyl-3-pyridyl)-1-methyl-6-oxo-3-pyridyl]pyrazol-1-yl]-6-fluoro-benzonitrile]"
11,< 500,"Cn1cc(-c2cnn(-c3cccc(F)c3C#N)c2)c(-c2ccc(OC(F)F)nc2)cc1=O [Example 353, 2-(4-(6-(difluoromethoxy)-1′-methyl-6′-oxo-1′,6′-dihydro-[3,4′-bipyridin]-3′-yl)-1H-pyrazol-1-yl)-6-fluorobenzonitrile]"
12,< 500,"COc1ncc(-c2cc(=O)n(C)cc2-c2cnn(-c3ccccc3Cl)c2)cc1C [Example 316, 5′-(1-(2-chlorophenyl)-1H-pyrazol-4-yl)-6-methoxy-1′,5-dimethyl-[3,4′-bipyridin]-2′(1′H)-one]"
13,< 500,"CCOc1ccc(-c2cc(=O)n(C)cc2-c2cnn(-c3cccc(Cl)c3C#N)c2)cn1 [Example 365, 2-chloro-6-(4-(6-ethoxy-1′-methyl-6′-oxo-1′,6′-dihydro-[3,4′-bipyridin]-3′-yl)-1H-pyrazol-1-yl)benzonitrile]"
